# Data from article PMC8175350, “Drug repurposing screens identify chemical entities for the development of COVID-19 interventions” (Nature Communications, 2021).
# Several values for one entry are separate records, joined by “and”; a condition that tells them apart may be missing. Equal entries are not always repeated. Where two headings read alike, the source gives them in different places.
# Experiments:
# [1] = Uninfected HeLa-ACE2 24 h live/dead cytotoxicity counter screen; type: cell-based, human; settings: human, uninfected HeLa-ACE2 cells, detail block; read-out: HeLa-ACE2 uninfected cytotoxicity CC50 GeoMean
# HeLa-ACE2 cells [2] = test: as above; type: cell-based, human; settings: HeLa-ACE2; concentration log[M] -8.59517; replicates
# SARS-CoV-2 [3] = type: cell-based; settings: 72 hpi
# in vitro [4] = settings: human
# in vitro [5] = settings: human; remark: listed apart in the source
# in vitro [6] = settings: human, Calu-3 uninfected cytotoxicity CC50 GeoMean
# SARS-CoV-2 [7] = test: Hamster lung viral titer by plaque assay, day 5; type: in vivo, Golden Syrian hamster; settings: for SARS-CoV-2 viral load in lung by plaque quantification, individual animals: values look like log10
# HeLa-ACE2 cells [8] = test: cells; settings: Homo sapiens
# SARS-CoV-2 [9] = test: microbe, parasite or virus in culture; type: cell-based
# SARS-CoV-2 [10] = test: Golden Syrian hamster SARS-CoV-2 efficacy model, body weight; type: in vivo; settings: for group average % of starting weight: day 5 of infection
# SARS-CoV-2 [11] = test: Hamster lung histopathology/infiltrate quantification (H&E, ImageJ); type: in vivo, Golden Syrian hamster; settings: 500 mg/kg
# Description: ImageJ (V1.53) software is used to quantify H&E-stained slide images (at ×20 magnification). Images are first converted to 8-Bit (Image > Type > 8-Bit), their threshold is adjusted (Image > Adjust > Threshold), a threshold value between 70–80% is chosen to ensure only dark stained nuclei are detected. Following thresholding the image is converted to a mask (Process > Binary > Convert to Mask) and analyzed (Analyze > Analyze Particles) with default settings, adding display results and show outline and the output was exported into GraphPad Prism (V9.0.0) where the nonparametric, two-sided Mann–Whitney statistical test was used to calculate significance.
# Calu-3 cells [12] = test: cells; settings: Homo sapiens
# Calu-3 cells [13] = test system: Calu-3 cells
# SARS-CoV-2 [14] = test: microbe, parasite or virus in culture; type: cell-based; remark: listed apart in the source
# SARS-CoV-2 [15] = test: Hamster lung RNA-Seq analysis; type: in vivo, Golden Syrian hamster; settings: 500 mg/kg
# HeLa-ACE2 cells [16] = test: cells; type: cell-based, human; settings: Homo sapiens, HeLa-ACE2; read-out: HeLa-ACE2 TOA cell count EC50 GeoMean
# [17] = Pharmacokinetic studies in Syrian hamsters, PO; type: in vivo; settings: male, Syrian, hamster, in vivo
# Description: Pharmacokinetic studies were conducted at Scripps Research Institute’s Animal Models Core in accordance with IACUC guidelines (IACUC Protocol #09-0004-5). Eight-week-old male Syrian Hamsters (Charles River; three per group) were dosed PO as indicated for each compound and formulation. Plasma concentration of each test article was monitored up to 48 h. Nelfinavir was formulated in 10% DMSO/90% corn oil and MK-4482 was formulated in 10% PEG400/2.5% Cremaphor RH40 for both pharmacokinetic and efficacy studies.
# SARS-CoV-2 [18] = test: microbe, parasite or virus in culture; type: cell-based; settings: for %infected: Calu-3, replicates n=1, n=2
smiles,measurement,setting,value
CC(C)C(=O)OC[C@H]1O[C@@H](n2ccc(NO)nc2=O)[C@H](O)[C@@H]1O [MK-4482],CC50 at 24 h,[1],> 39.8 µM
same,cytotox,HeLa-ACE2 cells [2],-0.706 and -12.7385 and -12.928 and 0.5106 and 4.684 and -11.4286 and -5.289 and -2.8 and 6.41
same,reduction in apical viral loads,SARS-CoV-2 [3],> 1 log
same,CC50 at 72 h,in vitro [4],> 39.8 µM
same,CC50 at 72 h,in vitro [5],> 39.8 µM
same,CC50 at 48 h,in vitro [6],> 29.9 µM
same,viral reduction,"SARS-CoV-2 [7]; 50 mg/kg PO BID, compared to vehicle control",99%
same,live viral titers in the lungs,"SARS-CoV-2 [7]; 50 mg/kg PO BID, day 5, group average",4.5 × 10^3 PFU/lung
same,"SARS-CoV-2 viral load in lung by plaque quantification, individual animals","SARS-CoV-2 [7]; 50 mg/kg, day 5",4.176 and 0 and 3.653 and 4.477
same,live viral titers in the lungs,"SARS-CoV-2 [7]; 150 mg/kg PO BID, day 5",undetectable
same,"SARS-CoV-2 viral load in lung by plaque quantification, individual animals","SARS-CoV-2 [7]; 150 mg/kg, day 5",0
same,live viral titers in the lungs,"SARS-CoV-2 [7]; 500 mg/kg PO BID, day 5",undetectable
same,"SARS-CoV-2 viral load in lung by plaque quantification, individual animals","SARS-CoV-2 [7]; 500 mg/kg, day 5",0
same,Emax,"HeLa-ACE2 cells [8]; HeLa-ACE2, 24 h, read-out: HeLa-ACE2 cell count Sinf Average",100%
same,EC50,"HeLa-ACE2 cells [8]; HeLa-ACE2, read-out: HeLa-ACE2 cell count EC50 GeoMean, detail block",> 9.59 µM
same,Emax,"SARS-CoV-2 [9]; Severe acute respiratory syndrome coronavirus 2, HeLa-ACE2, 24 h, curve plateau at infinite concentration, read-out: HeLa-ACE2 CoV-2 Sinf Average",100%
same,EC50,"SARS-CoV-2 [9]; Severe acute respiratory syndrome coronavirus 2, HeLa-ACE2, detail block, read-out: HeLa-ACE2 CoV-2 EC50 GeoMean",> 9.45 µM
same,HeLa-ACE2 SI,"SARS-CoV-2 [9]; selectivity index, uninfected HeLa-ACE2 CC50 / SARS-CoV-2 EC50",> 4.21
same,group average % of starting weight,SARS-CoV-2 [10]; 50 mg/kg PO BID,90%
same,"Percent weight from day 0, individual animals","SARS-CoV-2 [10]; 50 mg/kg, Day 1",100.619% and 100% and 99.9008% and 97.2408% and 100.231%
same,"Percent weight from day 0, individual animals","SARS-CoV-2 [10]; 50 mg/kg, Day 2",97.6006% and 97.2498% and 96.3294% and 93.8963% and 97.0023%
same,"Percent weight from day 0, individual animals","SARS-CoV-2 [10]; 50 mg/kg, Day 3",96.13% and 95.8747% and 93.0556% and 92.5585% and 94.3121%
same,"Percent weight from day 0, individual animals","SARS-CoV-2 [10]; 50 mg/kg, Day 4",94.4272% and 93.9649% and 89.1865% and 91.7224% and 90.8532%
same,"Percent weight from day 0, individual animals","SARS-CoV-2 [10]; 50 mg/kg, Day 5",93.4985% and 90.2215% and 86.4087% and 91.3043% and 88.9316%
same,group average % of starting weight,SARS-CoV-2 [10]; 150 mg/kg PO BID,89%
same,"Percent weight from day 0, individual animals","SARS-CoV-2 [10]; 150 mg/kg, Day 1",99.3145% and 100.794% and 101.014% and 100.59% and 100.598%
same,"Percent weight from day 0, individual animals","SARS-CoV-2 [10]; 150 mg/kg, Day 2",97.0009% and 97.9349% and 97.6599% and 97.2199% and 98.281%
same,"Percent weight from day 0, individual animals","SARS-CoV-2 [10]; 150 mg/kg, Day 3",94.7729% and 96.1875% and 94.7738% and 95.7035% and 94.843%
same,"Percent weight from day 0, individual animals","SARS-CoV-2 [10]; 150 mg/kg, Day 4",92.1165% and 92.5338% and 92.3635% and 94.524% and 91.4798%
same,"Percent weight from day 0, individual animals","SARS-CoV-2 [10]; 150 mg/kg, Day 5",90.4884% and 88.2446% and 89.2356% and 90.9014% and 88.0419%
same,group average % of starting weight,SARS-CoV-2 [10]; 500 mg/kg PO BID,97%
same,"Percent weight from day 0, individual animals","SARS-CoV-2 [10]; 500 mg/kg, Day 1",100.542% and 100.174% and 100.172% and 100.97% and 95.4962%
same,"Percent weight from day 0, individual animals","SARS-CoV-2 [10]; 500 mg/kg, Day 2",100.619% and 100.174% and 98.4483% and 98.806% and 95.246%
same,"Percent weight from day 0, individual animals","SARS-CoV-2 [10]; 500 mg/kg, Day 3",101.161% and 99.7394% and 97.8448% and 97.1642% and 96.9975%
same,"Percent weight from day 0, individual animals","SARS-CoV-2 [10]; 500 mg/kg, Day 4",100.774% and 99.5656% and 97.1552% and 94.5522% and 97.9983%
same,"Percent weight from day 0, individual animals","SARS-CoV-2 [10]; 500 mg/kg, Day 5",100.31% and 99.7394% and 95.9483% and 95.597% and 98.0817%
same,histological examination of lungs,SARS-CoV-2 [11],protected
same,abundance of cellularity and infiltrates in the lungs (ImageJ),"SARS-CoV-2 [11]; MK-4482-treated, Hamster 1-4, individual images",2983 and 5397 and 4186 and 5390 and 1931 and 4673 and 3775 and 5624 and 2350 and 4146 and 3662 and 5094 and 4440 and 4933 and 3481 and 5058 and 2520 and 4471 and 3837 and 4151 and 2838 and 4738 and 3878 and 3011 and 2773
same,Emax,"Calu-3 cells [12]; Calu-3, 48 h, read-out: Calu-3 cell count Sinf Average",100%
same,EC50,"Calu-3 cells [12]; Calu-3, read-out: Calu-3 cell count EC50 GeoMean, detail block",> 9.98 µM
same,uninfected Calu-3 CC50,Calu-3 cells [13],> 29.85 ×÷ 1 (n=2) μM
same,cytotox,Calu-3 cells [13]; human,-7.212
same,TOA,"SARS-CoV-2 [14]; HeLa-ACE2, log[M] -7.8551",2.9089 and 4.102 and 5.064
same,EC50,"SARS-CoV-2 [14]; Severe acute respiratory syndrome coronavirus 2, HeLa-ACE2, detail block, read-out: HeLa-ACE2 TOA CoV-2 EC50 GeoMean",> 9.59 µM
same,TOA:HeLa-ACE2 EC50 Ratio,SARS-CoV-2 [14]; TOA EC50 / HeLa-ACE2 SARS-CoV-2 EC50,1.014
same,genes significantly down regulated vs infected vehicle-treated controls (DESeq2),SARS-CoV-2 [15],66 genes
same,unsupervised hierarchical clustering of lung RNA-Seq samples,SARS-CoV-2 [15],clustered together with uninfected samples
same,EC50,HeLa-ACE2 cells [16],> 9.59 µM
same,Cl,[17],401.00 mL/min/kg
same,%infected,SARS-CoV-2 [18]; concentration log[M] -5.00096,-32.7882% and -37.4837% and -33.6325% and -41.3774% and -26.9927% and -42.8416%
same,%infected,SARS-CoV-2 [18]; concentration log[M] -5.47808,-27.4805% and -3.693% and -9.149% and -11.3438% and 9.653% and -8.935%
same,%infected,SARS-CoV-2 [18]; concentration log[M] -6.08014,23.1125% and 4.59% and 25.286% and 17.3454% and 15.2546% and 10.3832%
same,%infected,SARS-CoV-2 [18]; concentration log[M] -6.42922,17.3493% and 17.6914% and 5.1734% and 5.136% and 26.2062% and 8.78%
same,%infected,SARS-CoV-2 [18]; concentration log[M] -6.90623,7.3785% and 13.9122% and -0.1637% and 2.863% and 27.9695% and 13.9935%
same,%infected,SARS-CoV-2 [18]; concentration log[M] -7.50836,-8.777% and 19.9854% and 1.789% and 24.5386% and 23.5481% and -28.3332%
same,%infected,SARS-CoV-2 [18]; concentration log[M] -7.85886,17.2433% and 32.9409% and -21.7492% and 16.4627% and 42.3108% and 21.6153%
same,%infected,SARS-CoV-2 [18]; concentration log[M] -8.33602,11.8145% and 8.098% and -0.8953% and 19.1715% and 30.2349% and 22.7038%
same,Emax,"SARS-CoV-2 [18]; Severe acute respiratory syndrome coronavirus 2, Calu-3, 48 h, curve plateau at infinite concentration, read-out: Calu-3 CoV-2 Sinf Average",100%
same,EC50,"SARS-CoV-2 [18]; Severe acute respiratory syndrome coronavirus 2, Calu-3, detail block, read-out: Calu-3 CoV-2 EC50 GeoMean",> 9.98 µM
